The values below come from patent publication US11440923B2, “Substituted macrocyclic indole derivatives” (Bayer Aktiengesellschaft, priority 2017, dated 2022).

Read-outs that look alike come from different tables or passages of the source. Bounds are passed on as bounds.

The conditions of data set [1]: 11-membered ring.
Data set [2] has as its system SNU-16 cells. Kind of data set: Antiproliferation assay SNU-16 (Assay 7). Type of data set: cell-based. The conditions noted are these: Homo sapiens, SNU-16; 72 h, CellTiter-Glo; read-out: Antiproli SNU-16 IC50 median. The procedure: (§1) Assessment of the Anti-Proliferative Effect of Compounds in Different Cell Lines
(§2) The impact of compounds on the proliferation of different cell lines was assessed using the CellTiter-Glo® Luminescent Cell Viability reagent from Promega (G7573).
(§3) In parallel, cells were plated in a reference (day 0) plate for time zero determination. Cells were incubated in a humidified incubator at 37° C. overnight.
(§4) Rim wells were excluded. The cells were incubated for 72 h hours in a humidified incubator at 37° C. The day 0 plate was measured by adding 30 μL/well of CTG solution (CellTiter-Glo® Luminescent Cell Viability reagent, Promega G7573) to time zero wells in the reference plate followed by a 10 minutes incubation and luminescence reading at 0.1 ms. using the PHERAstar FS microplate reader (BMG Labtech).
(§5) After 72 h incubation, the treated plates were measured in the same way as the day 0 plate mentioned above. The Bella DRC Master Sheet was used to calculate IC50s, with CI=day 0 values and C0=DMSO control values.

For data set [3], the system named is SUDHL5 cells. The data set is described as follows: Induction of cytotoxicity in SUDHL5 cells (Assay 6). Type of data set: cell-based. The conditions noted are these: 5 h, CellTiter-Glo, read-out: Cytotox SUDHL5 IC50 (median). The method in brief:
(§6)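 Following overnight seeding at 37 °C, cells are treated with compound for 5 h, after which CellTiter-Glo reagent is added and luminescence measured following a 15 min room-temperature shake.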
For orientation: In ATP-based viability assays light output follows the ATP content of the culture.

The subject of data set [4] is AMO-1 cells. Kind of data set: Antiproliferation assay AMO-1 (Assay 7). Type of data set: cell-based. The conditions noted are these: 72 h, CellTiter-Glo, read-out: Antiproli AMO-1 IC50 median. A digest of the protocol: (§7)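 Cell proliferation was measured with CellTiter-Glo luminescence after 72 h compound exposure at 37 °C. A day 0 reference plate, read after overnight incubation, set the time-zero value. IC50s were calculated relative to day 0 (CI) and DMSO control (C0) values.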

For data set [5], the system named is SUDHL10 cells. The data set is described as follows: Induction of cytotoxicity in SUDHL10 cells (Assay 6). The data set is classed as cell-based. The conditions noted are these: 5 h, CellTiter-Glo, read-out: Cytotox SUDHL10 IC50 (median). A digest of the protocol:
as §6

Data set [6] deals with SUDHL5 cells. The data set is described as follows: Antiproliferation assay SUDHL5 (Assay 7). The conditions noted are these: 72 h, CellTiter-Glo, read-out: Antiproli SUDHL5 IC50 (median). The data set is classed as cell-based. A digest of the protocol:
as §7

Data set [7] relates to PA-1 cells. The data set is described as follows: Antiproliferation assay PA-1 (Assay 7). The data set is classed as cell-based. The conditions noted are these: Homo sapiens, PA-1; 72 h, CellTiter-Glo; read-out: Antiproli PA-1 IC50 median. On the procedure: as §1, §2, §3, §4, §5
Data set [8] has as its system DMS-114 cells. Kind of data set: Antiproliferation assay DMS-114 (Assay 7). Type of data set: cell-based. The conditions noted are these: Homo sapiens; DMS-114 cells, 72 h, CellTiter-Glo; read-out: Antiproli DM-S114 IC50 median. On the procedure:
as §1, §2, §3, §4, §5

The test system of data set [9] is SK-MEL-2 cells. Kind of data set: Antiproliferation assay SK-MEL-2 (Assay 7). The data set is classed as cell-based. The conditions noted are these: Homo sapiens, SK-MEL-2; 72 h, CellTiter-Glo; read-out: Antiproli SK-MEL-2 IC50 median. The procedure: as §1, §2, §3, §4, §5
The test system of data set [10] is SUDHL10 cells. The data set is described as follows: Induction of caspase-3/7 activity in SUDHL10 cells (Assay 4). Type of data set: cell-based. The conditions noted are these: caspase-3/7 induction, 3 h, read-out: Caspase SUDHL10 EC50 (median). The method in brief: (§8)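 Caspase-3/7 activity measured in DLBCL lines after 3 h compound exposure at 37 °C, following overnight plating; Caspase-Glo 3/7 luminescence read after 1 h at 37 °C. Medium-only background subtracted, values normalized to mean of DMSO-treated cells.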

Data set [11] relates to A-431 cells. Kind of data set: Antiproliferation assay A-431 (Assay 7). The data set is classed as cell-based. The conditions noted are these: Homo sapiens, A-431; 72 h, CellTiter-Glo; read-out: Antiproli A-431 IC50 median. The procedure:
as §1, §2, §3, §4, §5

Data set [12] addresses MCL-1 (Homo sapiens (Human), UniProt Q07820, K194A/K197A/R201A). The data set is described as follows: Protein-protein interaction assay MCL-1/Noxa BH3 peptide (MCL-1 assay, TR-FRET). The data set is classed as binding. The conditions noted are these: MCL-1 Assay IC50 (median). The procedure: The dose-dependent inhibition by the compounds described in this invention of the interaction between MCL-1 and the BH3 domain of Noxa (both human) was determined using a steady state binding competition assay with time-resolved fluorescence energy transfer (TR-FRET) readout. For that purpose MCL-1 (amino acids 173-321, N-terminal fused to Maltose Binding Protein (MBP) SEQ ID 1)) and a synthetic Noxa BH3-derived peptide of sequence Biotin-PEG2-PEG2-PAELEVE-Nva-[…]-amide (SEQ ID 2) served as protein receptor and tracer ligand respectively. The MBP-MCL-1 was purchased from Beryllium (Bedford, Mass., USA). The expression and purification of this protein construct has been described elsewhere (DOI:10.1371/journal.pone.0125010). The Noxa BH3-derived peptide can be obtained from e.g. Biosyntan (Berlin, Germany).
For that, 100-fold concentrated DMSO solutions were prepared by serial dilutions (1:3.4) of a 2 mM stock solution in a clear, 384-well microtiter plate (Greiner Bio-One, Frickenhausen, Germany). From there, 50 nl were transferred in a dark test plate (Greiner Bio-One, Frickenhausen, Germany). The assay was initiated by addition of 2 μL of a 2,5-fold concentrated MBP-MCL-1 solution (usually for a 1 nM end concentration in 5 μL reaction volume) in aqueous assay buffer [50 mM Tris/HCl pH 7, 100 mM sodium chloride (NaCl), 50 mM potassium fluoride (KF), 0.005% Tween-20, 2 mM DTT, 0.1% bovine gamma globulin (BGG)] to the compounds in the assay plate. This was followed by a 10-minute incubation step at 22° C. for pre-equilibration of the putative complex between MBP-MCL-1 and the compounds.
The mixture was incubated in the dark for one hour at 22° C. and then overnight at 4° C. The formation of MCL-1/Noxa complexes was determined by measuring the resonance energy transfer of the anti-MBP-Eu-cryptate antibody to the streptavidin-XL665 present in the reaction.
For that purpose, the fluorescence emission at 620 nm and 665 nm after excitation at 330-350 nm was measured in a TR-FRET measuring instrument, for instance a Rubystar or a Pherastar (both from BMG Lab Technologies, Offenburg, Germany) or a Viewlux (Perkin-Elmer). The ratio of the emission at 665 nm and at 622 nm was used as indicator of the amount of MCL-1/NOXA complexes present.
The resulting data (ratio) were normalized, taking 0% inhibition as the mean value of control measurements (usually 32 data points) where all reagents were included. In this case 50 nl DMSO were used instead of compounds. […] IC50 values were determined by regression analysis based on a 4 parameter equation (minimum, maximum, IC50, Hill; Y=Max+(Min−Max)/(1+(X/IC50)^Hill) using the Screener Software (Genedata).
For orientation: In TR-FRET formats the signal depends on donor and acceptor labels being close together.

Data set [13] deals with HMC-1-8 cells. The data set is described as follows: Antiproliferation assay HMC-1-8 (Assay 7). Type of data set: cell-based. A digest of the protocol:
as §7

Data set [14] relates to SNU-389 cells. Kind of data set: Antiproliferation assay SNU-389 (Assay 7). Type of data set: cell-based. The conditions noted are these: 72 h, CellTiter-Glo; read-out: Antiproli SNU-389 IC50. The procedure: as §1, §2, §3, §4, §5
For data set [15], the system named is SUDHL5 cells. Kind of data set: Induction of caspase-3/7 activity in SUDHL5 cells (Assay 4). Type of data set: cell-based. The conditions noted are these: caspase-3/7 induction, 3 h, read-out: Caspase SUDHL5 EC50 (median). A digest of the protocol:
as §8

The test system of data set [16] is A2780 cells. The data set is described as follows: Antiproliferation assay A2780 (Assay 7). The data set is classed as cell-based. The conditions noted are these: 72 h, CellTiter-Glo; read-out: Antiproli A2780 IC50 median. The procedure:
as §1, §2, §3, §4, §5

The subject of data set [17] is MV-4-11 cells. The data set is described as follows: Antiproliferation assay MV-4-11 (Assay 7). The data set is classed as cell-based. The conditions noted are these: 72 h, CellTiter-Glo; read-out: Antiproli MV-4-11 IC50 median. On the procedure:
as §1, §2, §3, §4, §5

The mark [18] stands for this setting: 72 h, CellTiter-Glo; read-out: Antiproli HMC-1-8 IC50 median.

Chain of MCL-1 (Q07820 whole entry, looked up, stated change not applied, the tested form may be a part): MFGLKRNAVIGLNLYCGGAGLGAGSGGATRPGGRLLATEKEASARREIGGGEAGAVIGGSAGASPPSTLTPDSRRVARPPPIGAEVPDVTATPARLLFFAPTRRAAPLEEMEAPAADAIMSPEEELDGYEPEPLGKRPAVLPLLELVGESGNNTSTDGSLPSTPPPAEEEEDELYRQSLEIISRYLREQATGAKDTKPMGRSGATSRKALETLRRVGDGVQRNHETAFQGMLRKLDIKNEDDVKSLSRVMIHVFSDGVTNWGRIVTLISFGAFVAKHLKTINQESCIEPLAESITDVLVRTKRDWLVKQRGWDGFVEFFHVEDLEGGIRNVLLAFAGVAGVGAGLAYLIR

Consider “(rac)-ethyl 4-chloro-3-ethyl-7-{3-[(6-fluoronaphthalen-1-yl)oxy]propyl}-2-methyl-(15-rac)-[2-(4-methylpiperazin-1-yl)ethyl]-2,10,11,12,13,15-hexahydropyrazolo[4′,3′:9,10][1,6]oxazacycloundecino[8,7,6-hi]indole-8-carboxylate”, for which, in data set [1] (amine bond, PPh3/DTBAD, THF, 22.7 mM), the ring closure, isolated yield came to 49%.
In data set [1] (from CCOC(=O)c1[nH]c2c(-c3c(C(CCN4CCOCC4)OCC(F)(F)CCO)nn(C)c3CC)c(Cl)ccc2c1CCCOc1cccc2cc(F)ccc12, amine bond, PPh3/DTBAD, THF, 22.5 mM), `CCOC(=O)c1c(CCCOc2cccc3cc(F)ccc23)c2ccc(Cl)c3c2n1CCC(F)(F)COC(CCN1CCOCC1)c1nn(C)c(CC)c1-3` (centres unmarked) came in with a ring closure, isolated yield of 83%.
`CCc1c2c(nn1C)C(CCCN1CCOCC1)OCCCCn1c(C(=O)O)c(CCCOc3cccc4cc(F)ccc34)c3ccc(Cl)c-2c31` (single isomer, unassigned; enantiomer 1) [Example 66, (+)-4-chloro-3-ethyl-7-{3-[(6-fluoronaphthalen-1-yl)oxy]propyl}-2-methyl-15-[3-(morpholin-4-yl)propyl]-2,10,11,12,13,15-hexahydropyrazolo[4′,3′:9,10][1,6]oxazacycloundecino[8,7,6-hi]indole-8-carboxylic Acid (Enantiomer 1)]: the IC50 in data set [2] stood at 1110 nM; in data set [3] it was 110 nM; in data set [4] it was 28.5 nM; in data set [5], 55 nM; in data set [6], 93 nM; in [7], 829 nM. The IC50 in data set [8] was 766 nM; in data set [9] it was 501 nM; in [11], 414 nM; in data set [12], 0.54 nM; in [13] (setting [18]) it was 1160 nM; in data set [14] it was 307 nM. Further, the EC50 in data set [10] was determined as 39 nM; in [15], 83 nM.
With `CCc1c2c(nn1C)C(CCN1CCC(F)(F)C1)OCCCCn1c(C(=O)O)c(CCCOc3cccc4cc(F)ccc34)c3ccc(Cl)c-2c31` (single isomer, unassigned; enantiomer 1) [Example 58, 4-chloro-15-[2-(3,3-difluoropyrrolidin-1-yl)ethyl]-3-ethyl-7-{3-[(6-fluoronaphthalen-1-yl)oxy]propyl}-2-methyl-2,10,11,12,13,15-hexahydropyrazolo[4′,3′:9,10][1,6]oxazacycloundecino[8,7,6-hi]indole-8-carboxylic Acid (Enantiomer 1)], the IC50 worked out at 135 nM in data set [2]; 28 nM in [3] (Homo sapiens, SU-DHL-5, 5 h); 19.4 nM in data set [4] (Homo sapiens, AMO1, 72 h); 43 nM in data set [5] (Homo sapiens, SU-DHL10, 5 h); 29 nM in data set [6] (Homo sapiens, SU-DHL-5, 72 h); 110 nM in data set [7]. The IC50 amounted to 81.1 nM in [8]; 728 nM in data set [9]; 486 nM in data set [11]; 328 nM in data set [13] (72 h, CellTiter-Glo, read-out: Antiproli HMC-1-8 IC50 median); 223 nM in data set [14]. For the same molecule, the EC50 came to 23 nM in data set [10] (Homo sapiens, SU-DHL10, 3 h) and 26 nM in data set [15] (Homo sapiens, SU-DHL-5, 3 h).
Regarding `CCOC(=O)c1[nH]c2c(-c3c(C(O)CCN4CCOCC4)nn(C)c3CC)c(F)ccc2c1CCCOc1cccc2ccccc12` (racemic), the ring closure, isolated yield in data set [1] (the molecule shown is the open-chain precursor, crosslinker bond, (Z)-1,4-dichlorobut-2-ene/Cs2CO3/NaI, MeCN, 98.0 mM, […]) was 50%.
The molecule “ethyl (15-rac)-4-chloro-3-ethyl-15-[2-(3-rac-(fluoroazetidin-1-yl)ethyl]-7-{3-[(6-fluoronaphthalen-1-yl)oxy]propyl}-2-methyl-2,10,11,12,13,15-hexahydropyrazolo[4′,3′:9,10][1,6]oxazacycloundecino[8,7,6-hi]indole-8-carboxylate (Mixture of Stereoisomers)” came in with a ring closure, isolated yield in data set [1] (amine bond, PPh3/DTBAD, THF, 69.2 mM) of 77%.
Take `Cc1c2c(nn1C)C(CCN1CCOCC1)OCCCCn1c(C(=O)O)c(CCCOc3cccc4ccccc34)c3cccc-2c31` (centres unmarked) [Example 06]: the IC50 in [16] was above 33000 nM; in data set [17], 22800 nM.
Regarding `CCOC(=O)c1[nH]c2c(-c3c(C(O)C4CC4)nn(C)c3CC)c(Cl)ccc2c1CCCOc1cccc2cc(F)ccc12` (racemic), the ring closure, isolated yield in data set [1] (the molecule shown is the open-chain precursor, crosslinker bond, (Z)-1,4-dichlorobut-2-ene/Cs2CO3/NaI, MeCN, 197.0 mM, 70.0 °C) stood at 59%.
`Cc1c2c(nn1C)C(CCN1CCOCC1)OCCCCn1c(C(=O)O)c(CCCOc3cccc4ccccc34)c3ccc(F)c-2c31` (centres unmarked) [Example 07]: the IC50 in [4] was determined as 463 nM; in data set [16], 4080 nM; in data set [13] (setting [18]), 1610 nM; in data set [17] it was 183 nM.

A word on the IC50: it is the concentration that gives 50% inhibition. As usually defined, the EC50 is the concentration giving half of the maximal effect.
